According to patent US20220096529A1, “2-HYDROXYPROPYL-BETA-CYCLODEXTRIN (HPBETACD) FOR USE IN THE TREATMENT OF BREAST CANCER” (UNIVERSITY OF THE WITWATERSRAND, JOHANNESBURG, priority 2019, published 2022):
Where “and” joins values, the source holds several entries; their conditions need not be identical. Equal entries are not always repeated. Entries after “also recorded” stand apart in the source; their conditions may differ.

Key:
[1] = test system: MCF7 cells; test: MTT growth inhibition assay; type: cell-based, human
Protocol: (§1) Cells were cultured in appropriate medium supplemented with 10% FCS, penicillin (100 U/ml), and streptomycin (100 μg/ml) (Gibco) at 5% CO2 in a 37° C. incubator.
(§2) Four different cell lines were used MCF7 (ER+). MDA-MB-231 (ER−), MRC-5 (Lung Fibroblasts) and HEK-293 (Embryonic kidney). MRC-5 and/or HEK-293 were used as control cell lines depending on availability.
(§3) In order to determine whether HPβCD has the ability to induce cancer cell death a primary screening using an MTT assay was performed. Three different time points 24 hrs.

[2] = test system: MDA-MB-231 cells; test: MTT growth inhibition assay; type: cell-based, human
Protocol: as §1, §2, §3

[3] = test system: MCF7 cells; test: ROS assay; type: cell-based, human
Protocol: (§4) To further validate the occurrence of apoptosis and to investigate the exact mechanisms if apoptosis, a ROS assay was conducted to capture the production of ROS. […] In order to be in solidarity with this fact, a ROS assay was performed in three cell lines: MCF7, MDA-MB-231 & MRC-5. Like before, HPβCD and the positive (10 mM H2O2) were treated for 24 hrs. The right hand section in each plot represents the production of ROS.

[4] = test system: MDA-MB-231 cells; test: ROS assay; type: cell-based, human
Protocol: as §4

[5] = test system: MRC-5 cells; test: ROS assay; type: cell-based, human
Protocol: as §4

[6] = test system: MCF7 cells; test: Filipin cholesterol staining; type: cell-based, human
[7] = test system: MDA-MB-231 cells; test: Filipin cholesterol staining; type: cell-based, human
Protocol: To further validate cholesterol depletion as observed from the cholesterol assay above a Filipin based cholesterol staining was conducted. MCF7. MDA-MB-231 cells were used. HEK-293 cells could not be used due to unavailability. HPβCD and the positive (5 mM MBCD) were treated for 24 hrs. Like PL, MBCD is also a well know cholesterol depletor.
Fluorescence microscopy has been a robust tool for investigating the intracellular transport of proteins. Filipin specifically binds to cholesterol and can give an overall quantification and has been more recently been clinically used in the diagnosis of Type C Niemann-Pick disease.

[8] = test system: MCF7 cells; test: Mice xenograft, ER+ breast cancer; type: in vivo, Nude Mice, MF-1 strain
Protocol: Since the potency of HPβCD against breast cancer was established in our in vitro assays, a thorough investigation in a mice model was conducted (Nude Mice. MF-1 strain). MCF-7 and MDA-MB-231 cells were injected in 32 mice (16 for each cell type) and after tumour development, was treated with HPβCD (3000 mg/kg b.w.). Thrice a week dose treatment plan was followed throughout the study.
To examine if HPβCD can be used as a future anti-breast cancer drug, mice xenografts were prepared. MCF7 cells (5 million) cells were injected in 16 mice with weekly β-estradiol supplementation. The study for triple negative induced breast cancer (MDA-MB-231) is complete. Up to 4 million cells were injected in 16 mice. This was subdivided in three more groups namely: Late stage, intermediate stage and early stage estrogen negative cancer. 4 mice were grouped as untreated (not receiving HPβCD), 4 for treated (late stage), 3 for treated (intermediate stage) and 3 for treated (early stage).
The anticancer effect of HPβCD on estrogen positive MCF7 cells induced tumours in xenograft mice model was also tested. The study was not completed as only 4 out of 16 mice developed tumours. But the mice who developed tumour were treated with HPβCD and 9.6% tumour reduction was observed (FIGS. 49 and 50).

[9] = test system: MDA-MB-231 tumours; test: Hematoxylin and eosin staining of xenograft tumours; type: in vivo, mice
Source text: Hematoxylin and cosin staining of mice was undertaken in untreated, intermediate and late stage MDA-MB-231 mice as is shown in FIG. 36.
The individual cells are markedly pleomorphic and have raised nuclear to cytoplasmic ratios. The neoplastic cells have irregular nuclear borders and the cells have vesicular chromatic with one to multiple prominent nucleoli. Brisk mitotic activity is evident. Areas of perineural and lymphovascular invasion are however, not documented.

[10] = test system: MCF7 cells; test: RT2 Profiler PCR Array Human Lipoprotein Signaling & Cholesterol Metabolism; type: cell-based; details: MCF7, majority of genes
Source text: (§5) PCR (polymerase chain reaction) arrays were run to identify gene expression changes in cancer cells after treatment with HPβCD. The differentially expressed genes along with their significance for cancer, some genes were selected for further drug-protein interaction studies.
(§6) Results from RT^2 Profiler™ PCR Array Human Lipoprotein Signaling & Cholesterol Metabolism (MCF7 and MDA-MB-231) are shown in FIG. 38.

[11] = test system: MDA-MB-231 cells; test: as above; type: cell-based
Source text: as §5, §6

[12] = test system: MDA-MB-231 cells; test: BODIPY lipid droplet staining; type: cell-based, human
Source text: Lipid droplets store cholesterol and HPβCD was able to reduce accumulation and storage of cholesterol in cancer cells.

[13] = test system: MDA-MB-231 cells; test: Alexa Fluor lipid raft staining; type: cell-based, human
[14] = test system: MCF7 cells; test: Alexa Fluor lipid raft staining; type: cell-based, human
Protocol: (B) is positive and (C) is treated.

[15] = late stage treated mice, one value per case

## 2-hydroxypropyl-β-cyclodextrin [HPβCD]
[1]; MCF7, 10 mM HPβCD, all three time points (24, 48, 72 hrs)
  growth inhibition: ~45%
[1]; MCF7, 24 hrs
  IC50: 11.1 mM
[1]; MCF7, 48 hrs
  IC50: 9.82 mM
[1]; MCF7, 72 hrs
  IC50: 7.45 mM
[2]; MDA-MB-231, 10 mM HPβCD, all three time points
  growth inhibition: ~45%
[2]; MDA-MB-231, 24 hrs
  IC50: 12.3 mM
[2]; MDA-MB-231, 48 hrs
  IC50: 11.2 mM
[2]; MDA-MB-231, 72 hrs
  IC50: 8.56 mM
[3]; MCF7, 10 mM HPβCD
  ROS production compared to untreated: about 2.5 fold
[3]; MCF7, 10 mM, 24 hrs
  ROS generation: 17.9%
[4]; MDA-MB-231, 10 mM HPβCD
  ROS production compared to untreated: about 4 fold
[4]; MDA-MB-231, 10 mM, 24 hrs
  ROS generation: 13.7%
[5]; MRC-5, 10 mM HPβCD
  ROS production compared to untreated: ~4 folds
[5]; MRC-5, 10 mM, 24 hrs
  ROS generation: 10.8%
[6]; MCF7, 10 mM HPβCD, 24 hrs, ImageJ
  Filipin fluorescence compared to untreated: four times less fluorescence
[6]; MCF7, FIG. 51
  cholesterol (Filipin staining) in treated vs untreated cells: decreased cholesterol
[7]; MDA-MB-231, 10 mM HPβCD, 24 hrs, ImageJ
  Filipin fluorescence compared to untreated: six times less fluorescence
[7]; MDA-MB-231, FIG. 46
  cholesterol (Filipin staining) in treated vs untreated cells: decreased cholesterol
[8]; ER+ MCF7 mice, treated for 5 weeks
  average tumour size: 5.3 mm^3
[8]; Mouse No. 29, 30 and 32, treated for 5 weeks
  tumour outcome: healed completely
[8]; Mouse No. 31, treated for 5 weeks
  tumour size: 21.28 mm^3
[9]; intermediate group
  necrosis, share of the total tumour examined: 6-10%
[9]; intermediate stage treated mice, one value per case
  MITOSES: 70 Atypical and 59 Atypical and 67 Atypical
[9]; intermediate stage treated mice, one value per case (INTM 13, 31, 32)
  NECROSIS: Focal necrosis; also recorded: Occasional; also recorded: Multiple pockets
[9]; late group
  apoptotic cells compared to the intermediate group: 2.9 times
  increase in number of apoptotic cells compared to the untreated group: ~1.7 fold
  mitotic activity lower than in the other two groups: approximately 1.1 times
[9]; late group, case Late 12
  increase in necrosis compared to the untreated group: ~4 fold
  necrosis, share of the tissue examined: up to 20%
[9]; [15]
  APOPTOSIS/ 10 HPF: 21 and 30 and 39 and 32 and 27
  EPID/ MUSCLE INV.: No muscle present; also recorded: No muscle or epidermis; also recorded: Muscle invasion
  MITOSES: 60 and 65 and 57 and 59 and 50
[9]; late stage treated mice, one value per case (LATE 8 (1), 8 (2), 11, 12, 14)
  NECROSIS: Necrosis seen
[10]
  genes involved in cholesterol related pathways: downregulated
[11]; MDA-MB-231, HPβCD treated
  ABCA1 gene expression: upregulation
[11]; MDA-MB-231, majority of genes
  genes involved in cholesterol related pathways: downregulated
[12]
  lipid droplets (BODIPY) in treated vs untreated cells: decrease in lipid droplets
[13]
  lipid rafts (ALEXA FLUOR) in treated vs untreated cells: decrease in lipid rafts
[14]
  lipid rafts (ALEXA FLUOR) in treated vs untreated cells: decrease in lipid rafts
